{"source": "patent US9328331B2", "about": "“Compositions and methods for promoting beta cell maturity” (Joslin Diabetes Center, Inc., priority 2009, dated 2016)", "key": {"beta cells": {"tested_on": "beta cells", "details": "Verga et al. 2006; cited from earlier work"}, "P7 dispersed islets": {"tested_on": "P7 dispersed islets", "test": "Glucose-stimulated insulin secretion by static incubation, insulin ELISA", "assay_type": "cell-based, rat", "details": "10^−11 M T3 for four days, FIG. 6B", "description": "RHPA allows the evaluation of secretion from single beta cells (see, e.g., Bosco et al., Am. J. Physiol., 268:C611-C618, 1995; Aguayo-Mazzucato et al., PLoS ONE, 1:e35, 2006). Briefly, insulin secreted during incubation with glucose binds to anti-insulin antibody and complement and lyses RBCs forming hemolytic immunoplaques around secreting cells. Accordingly, the area of the hemolytic plaque is proportional to the amount of insulin secreted by that individual cell. Glucose-stimulated insulin secretion (GSIS) is reflected by the secretion index: the product of the percentage of secreting cells and the mean area of immunoplaques. RHPA is a very sensitive assay in which the proportion of cells secreting and the robustness of their secretion can be measured. […] Insulin secretion was measured in static conditions by sequential incubation in 2.6 mM and 16.8 mM glucose in Krebs-Ringer bicarbonate buffer (KRB, 16 mM HEPES and 0.1% BSA, pH 7.4) as previously described (Schuppin et al., In Vitro Cell Dev Biol Anim 29A:339-344 (1993); Salomon et al., Exp Cell Res 162:507-520 (1986)). […]\nSimilar results were found in static incubation experiments were performed with P7 dispersed islets cultured in the presence (or absence) of 10^−11 M T3 for four days. mRNA levels for MafA and Ins2 were evaluated using real-time PCR. […]"}, "[1]": {"details": "in vivo administration, rats, Hartoft-Nielson et al. 2009; cited from earlier work"}, "neonatal islets [2]": {"tested_on": "neonatal islets", "test": "Quantitative PCR of MafA, insulin and other gene transcription in dispersed neonatal islets cultured with glucose and T3", "assay_type": "cell-based, rat", "details": "for insulin mRNA / MafA mRNA: 4 days", "description": "To analyze the role of thyroid hormone during postnatal development of the endocrine pancreas, dispersed P7 islets were cultured with the two changing physiological stimuli identified so far glucose (11 mM and 20 mM) and tri-iodothyronine (T3 at 10^−11 M in charcoal-stripped fetal bovine serum (CS-FBS)), and after 4 days MafA and insulin transcription were assessed.\nTo further explore this idea, dispersed P8 islets were cultured with two changing physiological stimuli identified so far glucose (11 mM and 20 mM) and tri-iodothyronine (T3) at a concentration of 10^−11 M (T-11; gray bars) or with […] T3 (T-9) in charcoal-stripped fetal bovine serum (CS-FBS); after 4 days transcription levels of MafA and the MafA targets Ins2, GLP1R, PCSK1, PC, and LDH-A were assessed.\n(§1) Similar results were found in static incubation experiments were performed with P7 dispersed islets cultured in the presence (or absence) of 10^−11 M T3 for four days. mRNA levels for MafA and Ins2 were evaluated using real-time PCR. […] To further evaluate insulin secretion in these cells, P8 islets were dispersed and then cultured for 4 days with and without 10^−11 M T3, and a reverse hemolytic plaque assay (RHPA) was used to evaluate insulin secretion from single beta cells. […] FIGS. 8A-8B show beta cell glucose responsiveness in 2.8 or 16.8 mM glucose in control cells (8A) or cells treated with T3 (8B) in one of the three RHPA experiments."}, "pancreatic acinar cells": {"tested_on": "pancreatic acinar cells", "details": "Ledda-Columbano et al. 2005; cited from earlier work"}, "single beta cells": {"tested_on": "single beta cells", "test": "Reverse hemolytic plaque assay (RHPA) of insulin secretion from single beta cells", "assay_type": "cell-based, rat", "description": "RHPA allows the evaluation of secretion from single beta cells (see, e.g., Bosco et al., Am. J. Physiol., 268:C611-C618, 1995; Aguayo-Mazzucato et al., PLoS ONE, 1:e35, 2006). Briefly, insulin secreted during incubation with glucose binds to anti-insulin antibody and complement and lyses RBCs forming hemolytic immunoplaques around secreting cells. Accordingly, the area of the hemolytic plaque is proportional to the amount of insulin secreted by that individual cell. Glucose-stimulated insulin secretion (GSIS) is reflected by the secretion index: the product of the percentage of secreting cells and the mean area of immunoplaques. RHPA is a very sensitive assay in which the proportion of cells secreting and the robustness of their secretion can be measured. However it is laborious, therefore classic static insulin secretion studies were also performed with an insulin ELISA for measurement. Insulin secretion was measured in static conditions by sequential incubation in 2.6 mM and 16.8 mM glucose in Krebs-Ringer bicarbonate buffer (KRB, 16 mM HEPES and 0.1% BSA, pH 7.4) as previously described (Schuppin et al., In Vitro Cell Dev Biol Anim 29A:339-344 (1993); Salomon et al., Exp Cell Res 162:507-520 (1986)). Supernatants and cells were frozen until assayed for Insulin content.\nas §1"}, "neonatal islets [3]": {"tested_on": "neonatal islets", "test": "Quantitative PCR of MafA, insulin and other gene transcription in dispersed neonatal islets cultured with glucose and T3", "assay_type": "cell-based, rat", "details": "P7 islets cultured with glucose and T3 at 0.015 nM in CS-FBS for four days, separately and together, FIG. 5A legend"}, "HPANC-1": {"tested_on": "HPANC-1", "details": "non-insulin expressing human epithelial cell line HPANC-1, Misiti et al. 2005; cited from earlier work"}, "[4]": {"details": "P8 islet cells treated with T3 vs control untreated cells, quantitative PCR, FIG. 9"}, "[5]": {"details": "P8 islets cultured for 4 days with 0.015 nM T3 (T-9)"}, "[6]": {"details": "dispersed P8 islets, glucose (11 mM and 20 mM) and T3, CS-FBS, FIG. 5C"}}}
{"smiles": "N[C@@H](Cc1cc(I)c(Oc2ccc(O)c(I)c2)c(I)c1)C(=O)O", "note": "[T3, L-3,5,3′-triiodothyronine]", "values": [{"measurement": "apoptosis in beta cells", "setting": "beta cells", "result": "reduces apoptosis"}, {"measurement": "cell proliferation in beta cells", "setting": "beta cells", "result": "promotes cell proliferation"}, {"measurement": "Glucose-stimulated insulin secretion", "setting": "P7 dispersed islets", "result": "significantly increased"}, {"measurement": "beta cell mass", "setting": "[1]", "result": "increased"}, {"measurement": "incidence of type I diabetes", "setting": "[1]", "result": "reduced"}, {"measurement": "MafA mRNA levels increase", "setting": "neonatal islets [2]; P7 dispersed islets, 10^−11 M T3 for four days, real-time PCR, FIG. 6A", "result": "about two-fold"}, {"measurement": "transcription of MCT1", "setting": "neonatal islets [2]; [4]", "result": "significantly increases"}, {"measurement": "transcription of MafA", "setting": "neonatal islets [2]; [4]", "result": "significantly increases"}, {"measurement": "transcription of TRb", "setting": "neonatal islets [2]; [4]", "result": "significantly increases"}, {"measurement": "MafA mRNA increase compared with control cultured islets", "setting": "neonatal islets [2]; [5]", "result": 2.5, "unit": "fold"}, {"measurement": "insulin mRNA increase compared with control cultured islets", "setting": "neonatal islets [2]; [5]", "result": 71, "unit": "%"}, {"measurement": "insulin mRNA", "setting": "neonatal islets [2]; dispersed P7 islets, glucose (11 mM and 20 mM) and T3 at 10^−11 M in CS-FBS, stimuli separately and together", "result": "significantly increased"}, {"measurement": "MafA mRNA", "setting": "neonatal islets [2]; dispersed P7 islets, glucose (11 mM and 20 mM) and T3 at 10^−11 M in CS-FBS, stimuli separately and together, FIG. 5A", "result": "significantly increased"}, {"measurement": "MafA mRNA", "setting": "neonatal islets [2]; [6]", "result": "significantly increased"}, {"measurement": "insulin mRNA", "setting": "neonatal islets [2]; [6]", "result": "significantly increased"}, {"measurement": "proliferation in pancreatic acinar cells", "setting": "pancreatic acinar cells", "result": "promotes increased proliferation"}, {"measurement": "proliferation in pancreatic islet (e.g., beta cells) and ductal cells", "setting": "pancreatic acinar cells", "result": "but not in pancreatic islet (e.g., beta cells) and ductal cells"}, {"measurement": "insulin secretion in response to 16.8 mM glucose", "setting": "single beta cells; P7 cells cultured for 4 days with thyroid hormone, one experiment", "result": "an increase in insulin secretion"}, {"measurement": "insulin secretion in the presence 16.8 mM glucose", "setting": "single beta cells; P7 cells treated with T3 compared to untreated control cells, FIGS. 7A and 7B legend", "result": "increases insulin secretion"}, {"measurement": "insulin secretion index", "setting": "single beta cells; dispersed P8 islets cultured for 4 days with 10^−11 M T3, FIG. 7A", "result": "marked increase"}, {"measurement": "percentage of insulin secreting cells", "setting": "single beta cells; dispersed P8 islets cultured for 4 days with 10^−11 M T3, FIG. 7B", "result": "marked increase"}, {"measurement": "MafA transcription", "setting": "neonatal islets [3]", "result": "increase"}, {"measurement": "differentiation to or towards a glucose responsive insulin secreting cell line", "setting": "HPANC-1", "result": "promote differentiation"}]}
